Measurements reported in a melting point compilation (Tetko et al.; mined from patent text by program, amines drawn as free bases though some values may be those of a salt).

Row | Compound | melting point
1 | O=C1c2ccc(S(=O)(=O)c3ccccc3)cc2C(=O)c2cc3ccccc3cc21 | > 260 °C
2 | Ic1ccc(OC2CCCCO2)cc1 (stereo unspecified) | 66 °C
3 | COCc1nnc(-c2cccnc2)n1-c1c(C)c(Cl)cc2[nH]c(=O)c(=O)[nH]c12 | > 300 °C
4 | CN(C)c1ccc2c(c1)C(=O)C(n1ccnc1)CC2 (stereo unspecified) | 160 to 162 °C
5 | CC(CO)C1CCC2C3CCC4=CC(=O)CCC4(C)C3CCC12C (stereo unspecified) | 140 to 141 °C
6 | CC(C)=CCCn1ccnc1[N+](=O)[O-] | 49 to 51 °C
7 | CN1CC2CC(=O)NC3C=CC=C4Cc5ccccc5C(C1)C2N43 (stereo unspecified) | 165 to 168 °C
8 | O=[N+]([O-])c1ccc2c(c1)C(c1ccccc1)=NCc1nc(CO)cn1-2 | 250 to 251 °C
9 | CC(c1cccnn1)c1cccc(Cl)c1Cl (stereo unspecified) | 96 to 98 °C
10 | CCCCCCCCCCCCCCCCSCC(CNS(=O)(=O)CCCI)NC(=O)NC (stereo unspecified) | 70 to 71 °C
11 | CCCCCCCCCc1ccc(C(=O)CC(=O)C(=O)O)cc1 | 90 to 91 °C
12 | O=Cc1ccc(-c2cc(O)ccc2O)cc1 | 203 to 205 °C
13 | CC(C)NC(=N)NC1=NC(=O)C(=O)N1c1ccc(Cl)c(Cl)c1 | 244 °C
14 | O=Cc1ccc2nc3c(cc2c1)-c1cccc2cccc-3c12 | 245 to 246 °C
15 | CNc1cc(F)c(C=O)cc1F | 133 to 138 °C
16 | O=C1N(c2ccc(Cl)cc2)C(Cl)(Cl)C2CCCCC12Cl (stereo unspecified) | 120 to 124 °C
17 | Clc1ccc2c(c1)C(c1ccccc1Cl)=CCc1nncn1-2 | 189 to 190 °C
18 | CCn1c(=O)[nH]c(=O)c2c(-c3ccc(F)cc3)c(/C=C/C=O)c(C3CC3)nc21 | 236 °C
19 | O=C(O)C1=CCCCC1C(=O)O (stereo unspecified) | 201 to 203 °C
20 | CCOC(=O)c1cn(CCF)c2nc(SCC)c(F)cc2c1=O | 271 to 273 °C
21 | Cc1cc(Oc2c(Cl)cc(C(F)(F)F)cc2Cl)ccc1S(=O)(=O)C(F)(F)F | 121 to 122 °C
22 | N#Cc1cc(-c2cccc(F)c2)c[nH]c1=O | 261 to 266 °C
23 | CC(C)OC(=O)Nc1cccc(-c2ccnc3c(C(=O)c4ccco4)cnn23)c1 | 140 to 143 °C
24 | CCN(CC)C1=NN(Nc2ccc3nc(C)cc(N)c3c2)NC(Cl)=C1 | 120 °C
25 | CC1(C)OC(C=Cc2ccsc2)=CC1=O | 79 to 80 °C

Row | Compound | melting point
26 | CCCCCCCC(=O)NC(=O)OCc1nc(C(C)C)c(Sc2cc(Cl)cc(Cl)c2)n1CC | 99 to 101 °C
27 | FC(F)(F)COc1ccccc1Sc1nc[nH]n1 | 100 to 101 °C
28 | COc1cc(CO)c(OC)cc1Cl | 89 to 90 °C
29 | C#CCOc1ccc2c(c1)c(-c1ccc(C(C)C)cc1)nc(=O)n2Cc1cccc(OC(C)(C)C)n1 | 62 to 65 °C
30 | Cc1[nH]c(=S)[nH]c(=O)c1CCc1ccccc1 | 210 to 214 °C
31 | O=C1NC(C(=O)NCCCO[N+](=O)[O-])CS1 (stereo unspecified) | 83 to 85 °C
32 | COC(=O)CCC(C)C1CCC2C3CC=C4CC(OC(C)=O)CC(OC(C)=O)C4(C)C3CCC12C (stereo unspecified) | 108 to 113 °C
33 | C#Cc1cn(C)c2cc(-c3ccccc3Cl)c3c(c12)C(=O)NC3=O | 125 to 129 °C
34 | CCC(=O)N1Cc2cn[nH]c2-c2cc(N)ccc21 | 218 to 220 °C
35 | CCCCCc1ccc(-c2cnc(-c3ccc(C#N)cc3)nc2)cc1 | 126 °C
36 | NS(=O)(=O)c1cc2cccc(O)c2s1 | 196 to 198 °C
37 | COc1ccc(CCNS(=O)(=O)Cc2ccc3[nH]cc(CCN(C)C)c3c2)cc1 | 67 to 70 °C
38 | Cn1cc(-c2nsc(Cl)n2)c2ccccc21 | 93 to 94 °C
39 | COC(=O)c1ccc(N2C(=O)CCC2(CO)CO)c(N)c1 | 192 to 194 °C
40 | Clc1ccc(C(Cn2ccnc2)SCCC=Cc2ccccc2)c(Cl)c1 (stereo unspecified) | 111 to 113 °C
41 | COC(=O)CC(Cc1c[nH]c2ccccc12)(NC(=O)OC1C2CC3CC(C2)CC1C3)C(=O)O (stereo unspecified) | 108 to 109 °C
42 | CC(C)(C)c1ccc(Cl)c(C(=O)O)c1 | 99 to 103 °C
43 | N#CC1(c2ccccc2)CCN(c2ccn(CC3CC3)c(=O)c2Cl)CC1 | 174 °C
44 | OCCNc1cc(N2CCCC2)nc(N2CCCC2)n1 | 150 to 152 °C
45 | CCCCCc1ccc(C(=O)NC2N=C(c3ccccc3)c3ccccc3NC2=O)cc1 (racemic) | 203 to 205 °C
46 | CC(C)c1ccc(Cl)nn1 | 32 to 33 °C
47 | Cc1c(C)c2c(c(C)c1NS(C)(=O)=O)C(c1ccc(C(C)C)cc1)CO2 (stereo unspecified) | 132 to 133 °C
48 | O=C(O)CCCCCSc1ccc(-c2ccc(Cl)cc2)cc1 | 156 to 157 °C
49 | CCOc1nc2cc(C)nn2c2c1cnc1c2cnn1CC | 142 to 144 °C
50 | CC(C)CCC[C@H](NC(=O)[C@@H](N)Cc1c[nH]cn1)[C@@H](O)C1CCCCC1 | 126 to 130 °C

Next, values leading:

Row | melting point | Compound
51 | 203 to 204 °C | CCCSc1sc(C(N)=O)c2c1-c1nc(-c3ccccc3)sc1CC2
52 | 116 to 118 °C | CCn1ccc2nc(N3CCN(Cc4ccccc4)CC3)ncc2c1=O
53 | 227 °C | COc1ccc(C2c3[nH]c4ccccc4c3CCN2C(=O)C=Cc2cccc([N+](=O)[O-])c2)cc1 (stereo unspecified)
54 | 102 °C | Cc1ccc(-c2ccccc2)cc1Cn1c(C2CC2)nn(C)c1=O
55 | 250 to 251 °C | COc1ccc(N2C(=O)c3ccc(Cl)cc3C2CC(=O)O)cc1 (stereo unspecified)
56 | 137 to 138 °C | Cc1cccc(-c2nc3cccnn3c2-c2ccnc(NCC3CCCO3)c2)c1 (stereo unspecified)
57 | 80 to 81 °C | COc1ccc(OCC(=O)N[C@@H](Cc2ccccc2)C(=O)CSCc2ccsc2)cc1
58 | 56 to 57 °C | CCOC(=O)Cc1nc(-c2ccc(Cl)cc2)oc1CC(C)C
59 | 203 to 204 °C | COc1cc(/C=C2\C(=O)NC(=O)\C2=C\c2ccccc2)ccc1OC1CCCC1
60 | 201 °C | COC(=N)c1sc2ccccc2c1O
61 | 280 to 283 °C | O=c1nc(Nc2ccc(C(F)(F)F)cc2)sc2ncccc12
62 | 99 °C | CN(C)CCN(c1ccccc1NCCOc1ccc(Cl)cc1)S(=O)(=O)c1ccc(Cl)cc1
63 | 186 to 189 °C | O=C(O)CCCc1cc2nc(Cl)ccc2n1S(=O)(=O)c1cccc2cccnc12
64 | 188 to 190 °C | Cc1cccc(C)c1N(C(C)CN1C(=O)c2ccccc2C1=O)S(C)(=O)=O (stereo unspecified)
65 | 69 to 70 °C | Cc1cc(C)n2nc(SCc3ccccc3)nc2c1
66 | 150 to 151 °C | CCCCc1nc2cccc(C)c2c(=O)n1Cc1ccc(C2(C(=O)O)CC=CC2)s1
67 | 114 to 116 °C | COc1cc(C(C)C)c2c(c1)S(=O)(=O)N(COc1cc(C#N)nn1-c1ccccc1)C2=O
68 | 196 to 198 °C | COC(=O)c1cc2cc(OC)c(OC)cc2c(-c2ccncc2)c1C(=O)OC
69 | 112 to 115 °C | CC(Br)C(=O)OCN1C(=O)NC(c2ccccc2)(c2ccccc2)C1=O (stereo unspecified)
70 | 80 to 100 °C | C[C@H](CO)Nc1nc(SCc2cccc(F)c2F)nc2[nH]c(=O)c(NCc3ccccc3)nc12
71 | 135 to 136 °C | O=C(Nc1c(C(O)(C(F)(F)F)C(F)(F)F)ccc2ccccc12)c1ccc(F)cc1
72 | 209 to 211 °C | COc1ccc(/C=C/C(=O)c2ccc(C(=O)O)cc2)c(-c2cccs2)c1
73 | 92 to 93 °C | CCOC(=O)c1c(O)c2ccc(F)cc2c(=O)n1CC(C)(C)C
74 | > 345 °C | O=C(O)c1ccc(/C=C/c2ccc3c(=O)[nH]ncc3c2)cc1
75 | 264 to 268 °C | Cc1ccc(O)c2[nH]c(Cc3cccnc3)nc12
76 | 196 °C | CCCCc1nc(S(C)(=O)=O)c(C(=O)O)n1Cc1ccc(-c2ccccc2C(=O)O)cc1

Row | melting point | Compound
77 | 133 to 134 °C | O=C1CCC(c2ccc(CCCCCNC(=O)c3cccnc3)cc2)=NN1
78 | 183 to 185 °C | CCOC(=O)CCN1CCN(CC=CC(=O)Nc2cc3c(Nc4ccc(F)c(Cl)c4)ncnc3cc2OCC2CC2)CC1
79 | 116 to 122 °C | CCCCc1nc2c(OC)ccc(CCN(C)C)c2[nH]1
80 | 167 to 168 °C | CC(C)(C)[Si](C)(C)N1C(=O)[C@@H](N2C(=O)c3ccccc3C2=O)[C@H]1/C=C/c1ccccc1 (relative stereo)
81 | 171 to 172 °C | COc1cc(OC)c(OC)c(-c2ccc(N(C)CCN(C)c3ccc(-c4cc(OC)cc(OC)c4OC)nc3)cn2)c1
82 | 219 to 220 °C | C#Cc1cnc2c(NC(=O)c3c(Cl)cccc3Cl)cccc2c1
83 | 251 to 253 °C | COc1ccccc1Nc1ncc(C(=O)O)c(=O)[nH]1
84 | 172 to 174 °C | CC(C)CNCc1cc2cc(NC(=O)c3ccc(C#CC4(O)CC4)cc3)ccc2n1C
85 | 119 to 120 °C | CC(=O)Nc1ccc(C(=O)c2c(N)sc3c2CCN(Cc2ccccc2)C3)cc1
86 | 104 to 106 °C | COc1ccc(Cn2cnc3c(Cl)nc(C(F)(F)F)nc32)cc1
87 | 85 to 87 °C | CCCc1c(OCCCOc2cccnc2CCC(=O)OC)ccc(C(C)=O)c1O
88 | 154 to 156 °C | COc1cc(C(=O)O)ccc1OCCCCl
89 | 194 to 196 °C | O=C(c1ccccc1)N1CCCC2=C1CCc1cc(Cl)ccc12
90 | 137 to 140 °C | O=C(Oc1cc(F)ccc1F)c1cc2cc(CCl)ccc2oc1=O
91 | 185 °C | Clc1ccc(Cn2cc(C=NNc3nc(-c4ccc(Cl)cc4Cl)cs3)c3ccccc32)c(Cl)c1
92 | 112 °C | CC(C)(C)NCC(O)COc1ccccc1C=Cc1cccc2c1CC(=O)N2 (stereo unspecified)
93 | 76 to 80 °C | Cc1cccc(NC(=O)NCC(=O)N(CC(=O)N(CC(=O)OC(C)(C)C)c2ccccc2)c2ccccc2)c1
94 | 109 to 111 °C | COCOc1cccc2c(=O)[nH]c(CCCCN(C)C)cc12
95 | 243 to 244 °C | CN(C)C(=O)C1=NN(c2ccccc2)C(C(N)=O)=NN1c1ccccc1
96 | 88.5 to 90 °C | CCNC(=O)CCC(=O)c1cnc2c(OC)cccc2c1Nc1ccccc1C
97 | 136 to 137 °C | COc1ccccc1CCN(CCCCC(=O)c1ccc2c(c1)CCN2C(=O)Nc1ccccc1)C(=O)OC(C)(C)C
98 | > 300 °C | CCOC(=O)C(=O)Nc1cc(NC(C)=O)ccc1O
99 | 150 to 152 °C | COc1cc(OC)cc(OC(=O)NC(=O)C(c2ccccc2)c2ccccc2)c1
100 | 110 °C | CCOC(=O)C1=C(N)N=C(OCC)C(C(=O)OCC)C1c1ccco1 (stereo unspecified)
101 | 183 to 184 °C | COC(=O)c1ccc(-c2cc(-c3ccc(C(F)(F)F)cc3)on2)cc1
